# Test results published in patent US20130267549A1, “Use of Pyrimidylaminobenzamide Derivatives for the Treatment of Fibrosis” (NOVARTIS AG, priority 2009, published 2013).
# Tested on: Rat Bleomycin Model
# Experiment: Rat bleomycin model of lung fibrosis: histological analysis of interstitial collagen deposition (Picrosirius red stain)
# Assay type: in vivo
# Settings: co-administration with bleomycin, relative area and intensity of interstitial collagen (manual score), FIG. 1
# Experimental: Appl. Pharmacol. (1992)116:30-7). Another well-established model for lung fibrosis is the rat bleomycin model published by E. White et al, Am J Respir Crit Care Med. 2006, 173: 112-121.
# A histological analysis of levels of collagen deposition in the lung interstitium, as determined using Picrosirius red stain, for bleomycin alone as well as combinations of bleomycin and several other compounds, including AMN107, was performed. As depicted in FIG. 1 showing the levels of interstitial collagen in lung tissue as determined histologically using Picrosirius red stain (statistical analysis: Man Whitney rank sum test), co-administration of AMN107 can reduce the effect of bleomycin by more than 50%.
structure (smiles),measurement,value
"Cc1cn(-c2cc(NC(=O)c3ccc(C)c(Nc4nccc(-c5cccnc5)n4)c3)cc(C(F)(F)F)c2)cn1 [AMN107, 4-methyl-3-[[4-(3-pyridinyl)-2-pyrimidinyl]amino]-N-[5-(4-methyl-1H-imidazol-1-yl)-3-(trifluoromethyl)phenyl]benzamide]",reduction of the effect of bleomycin on levels of interstitial collagen in lung tissue,more than 50%
